ChEMBL document CHEMBL1123022, “S-(nitrocarbobenzoxy)glutathiones: potent competitive inhibitors of mammalian glyoxalase II” (J Med Chem, 1985)

Legend:
[1] = biological target: T1, Lactoylglutathione lyase (Rattus norvegicus) (UniProt Q6P7Q4); assay: […] inhibitory activity against rat liver glyoxalase I
T1 sequence (whole entry): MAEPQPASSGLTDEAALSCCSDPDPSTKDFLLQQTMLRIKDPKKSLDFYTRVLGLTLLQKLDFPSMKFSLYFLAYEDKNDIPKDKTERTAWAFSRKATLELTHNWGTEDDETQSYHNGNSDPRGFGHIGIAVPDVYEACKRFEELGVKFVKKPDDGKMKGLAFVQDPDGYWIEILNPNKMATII

[2] = biological target: Hydroxyacylglutathione hydrolase, mitochondrial (Rattus norvegicus) (UniProt O35952); assay: […] inhibitory activity against rat liver glyoxalase II
[3] = biological target: Hydroxyacylglutathione hydrolase, mitochondrial (Rattus norvegicus, UniProt O35952); assay: Binding affinity towards rat liver glyoxalase II

[I] 0.5 [1] | [I] 0.5 [2] | Ki [3] | SMILES
925 µM | 12 µM | 6.5 µM | NC(CCC(=O)NC(CSC(=O)OCc1ccc([N+](=O)[O-])cc1)C(=O)NCC(=O)O)C(=O)O (centres undefined)
– | 165 µM | 65 µM | NC(CCC(=O)NC(CSC(=O)OCc1ccccc1)C(=O)NCC(=O)O)C(=O)O (centres undefined)
– | 20 µM | 15 µM | NC(CCC(=O)NC(CSC(=O)OCc1ccccc1[N+](=O)[O-])C(=O)NCC(=O)O)C(=O)O (centres undefined)
– | 15 µM | 9 µM | NC(CCC(=O)NC(CSC(=O)OCc1cccc([N+](=O)[O-])c1)C(=O)NCC(=O)O)C(=O)O (centres undefined)
